We go through one molecule from publication PMC10669625 (Biomedicines, 2023).

Details of data set [1]: method as in PMID 20661827. As to conditions: cited from earlier work.
On the set-up of data set [2]: method as in PMID 9682146, PMID 9654110. The note with it: after oral administration; cited from earlier work.
Details of data set [3]: method as in PMID 30845345. As to conditions: mice; oral and inhalation intake; within 30 min post administration; cited from earlier work.
Data set [4] in a line: Limonene exhalation kinetics in breath (Breath Biopsy, GC-MS) after ingestion of 100 mg limonene. As to conditions: for Cmax (ng) median [IQR]: 100 mg limonene oral, overnight fast.
The nature of data set [5]: Breath limonene by selected ion flow tube mass spectrometry (SIFT-MS), one 15 s exhalation. It is filed as in vivo. The note with it: unpublished data.

On to `C=C(C)[C@H]1CC=C(C)CC1` [limonene], for which the “Average increase in adipose tissue” value in data set [1] (after 4 weeks of continuous exposure) was 44 fold. In data set [1] (after a single dose), the “Accumulation in adipose tissue” value is “no accumulation”. In addition, the Distribution volume entry in data set [2] is on record as “greater than total body water”. The Organ distribution result in data set [3] is “majority of limonene found in the liver”. For the same molecule, the “Limonene spike in breath after administration compared to baseline” value in data set [4] (all subjects, 100 mg limonene) was greater than 100 fold. Besides, in data set [4] (breath, semi-logarithmic scale, control group), the “Slope (rate of elimination)” value was −0.027 [−0.031–−0.023]. Moreover, in data set [4] (breath, cirrhosis group), the “AUC (0–90 min) median [IQR]” value is 121,437 [57,921–202,733] ng × min/400 mL and the “Cmax (ng) median [IQR]” value is 2077 [1051–4260] ng. In data set [4] (breath, control group), the “AUC (0–90 min) median [IQR]” value was 27,107 [17,605–34,946] ng × min/400 mL and the “Cmax (ng) median [IQR]” value is 595 [361–903] ng. This molecule also had a Cmax in data set [4] (case report subject DYL10297 (enrolled as control, suspected mild chronic liver disease), at 40 min) of 2421 ng. Besides, in data set [5], the “Breath levels of limonene before administration” value is “a few” and the “Increase of breath limonene after administration vs before” value is listed as greater than 1000 fold. The “Breath levels of limonene after administration” value in data set [5] (up to) is recorded as 5–10 PPM.
